Data reported in PMC3914206.

Tests used:
panel of 442 kinases [1] = target: T1, panel of 442 kinases (Homo sapiens, UniProt O75747); format: binding; conditions: Compound Concentration 10 µM
T1 construct: purchased KINOMEscan
T1 sequence (O75747 1-1486): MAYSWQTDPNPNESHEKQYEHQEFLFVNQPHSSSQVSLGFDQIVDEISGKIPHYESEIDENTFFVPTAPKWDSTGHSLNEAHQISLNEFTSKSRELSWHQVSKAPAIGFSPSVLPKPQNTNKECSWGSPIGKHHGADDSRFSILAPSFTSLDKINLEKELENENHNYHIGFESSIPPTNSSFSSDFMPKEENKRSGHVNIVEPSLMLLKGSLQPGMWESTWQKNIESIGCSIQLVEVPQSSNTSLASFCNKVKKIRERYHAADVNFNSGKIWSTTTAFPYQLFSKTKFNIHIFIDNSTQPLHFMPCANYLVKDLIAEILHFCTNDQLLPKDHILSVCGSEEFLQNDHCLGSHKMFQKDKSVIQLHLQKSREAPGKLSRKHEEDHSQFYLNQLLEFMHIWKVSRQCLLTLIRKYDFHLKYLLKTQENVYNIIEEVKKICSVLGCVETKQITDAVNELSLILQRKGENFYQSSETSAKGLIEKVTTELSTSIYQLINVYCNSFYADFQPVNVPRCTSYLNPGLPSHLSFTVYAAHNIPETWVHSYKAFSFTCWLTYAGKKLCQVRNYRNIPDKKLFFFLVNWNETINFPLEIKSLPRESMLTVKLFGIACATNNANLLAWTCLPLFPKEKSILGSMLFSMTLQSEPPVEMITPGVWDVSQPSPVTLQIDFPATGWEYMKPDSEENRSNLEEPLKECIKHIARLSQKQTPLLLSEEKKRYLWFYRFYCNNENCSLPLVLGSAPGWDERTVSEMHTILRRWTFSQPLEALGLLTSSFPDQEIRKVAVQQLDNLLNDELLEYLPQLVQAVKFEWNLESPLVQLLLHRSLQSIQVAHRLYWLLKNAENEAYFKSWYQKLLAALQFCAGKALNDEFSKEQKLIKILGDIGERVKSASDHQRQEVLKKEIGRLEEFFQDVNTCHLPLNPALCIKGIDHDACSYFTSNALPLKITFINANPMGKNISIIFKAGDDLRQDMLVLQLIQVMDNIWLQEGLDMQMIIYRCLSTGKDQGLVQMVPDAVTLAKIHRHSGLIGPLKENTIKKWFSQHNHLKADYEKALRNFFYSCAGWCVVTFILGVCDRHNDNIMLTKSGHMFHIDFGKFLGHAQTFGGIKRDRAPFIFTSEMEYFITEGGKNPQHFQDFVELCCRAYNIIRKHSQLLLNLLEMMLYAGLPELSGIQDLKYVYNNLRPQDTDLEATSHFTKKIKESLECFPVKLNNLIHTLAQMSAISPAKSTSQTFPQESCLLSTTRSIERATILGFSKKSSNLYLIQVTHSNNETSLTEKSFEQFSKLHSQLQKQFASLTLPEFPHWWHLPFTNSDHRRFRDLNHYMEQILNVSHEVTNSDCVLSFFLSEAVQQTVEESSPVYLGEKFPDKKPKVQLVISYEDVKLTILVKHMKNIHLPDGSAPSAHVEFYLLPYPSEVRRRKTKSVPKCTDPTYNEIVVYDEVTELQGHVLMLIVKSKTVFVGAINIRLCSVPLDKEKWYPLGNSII
Text: (§1) We assessed the selectivity of members of this scaffold using the KINOMEscan methodology across a near comprehensive panel of 442 kinases [[18,27]].

panel of 442 kinases [2] = target: T2, panel of 442 kinases (Homo sapiens, UniProt Q16659); format: binding; conditions: Compound Concentration 10 µM
T2 construct: purchased KINOMEscan
Text: as §1

T2 sequence (Q16659 whole entry): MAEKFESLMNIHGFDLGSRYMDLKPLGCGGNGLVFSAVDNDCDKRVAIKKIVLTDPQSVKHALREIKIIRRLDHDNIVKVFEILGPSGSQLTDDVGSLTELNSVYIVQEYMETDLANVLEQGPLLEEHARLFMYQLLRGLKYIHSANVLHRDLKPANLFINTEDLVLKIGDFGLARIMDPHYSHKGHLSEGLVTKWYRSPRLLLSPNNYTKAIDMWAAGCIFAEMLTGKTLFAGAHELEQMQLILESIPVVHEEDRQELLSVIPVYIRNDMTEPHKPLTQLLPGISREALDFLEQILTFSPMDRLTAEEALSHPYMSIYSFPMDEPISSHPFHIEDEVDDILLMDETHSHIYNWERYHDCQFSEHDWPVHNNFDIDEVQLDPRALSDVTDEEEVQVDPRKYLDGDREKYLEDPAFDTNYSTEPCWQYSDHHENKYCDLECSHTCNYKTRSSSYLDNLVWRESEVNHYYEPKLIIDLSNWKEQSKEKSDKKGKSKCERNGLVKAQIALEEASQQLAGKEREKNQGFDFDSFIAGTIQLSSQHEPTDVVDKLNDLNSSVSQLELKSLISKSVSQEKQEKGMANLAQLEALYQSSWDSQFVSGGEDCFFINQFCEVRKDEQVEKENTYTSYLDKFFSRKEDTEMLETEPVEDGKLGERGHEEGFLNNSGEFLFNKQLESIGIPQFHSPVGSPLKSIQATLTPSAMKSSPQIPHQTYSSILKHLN

Row | Structure (SMILES) | KINOMEscan: PIK3C2G (panel of 442 kinases [1]) | KINOMEscan: ERK3 (panel of 442 kinases [2])
1 | COc1cc(C(=O)N2CCC(N3CCN(C)CC3)CC2)ccc1Nc1ncc2c(n1)N(C)c1ccccc1C(=O)N2C [15 (LRRK2-IN-1)] | 100 | 100
2 | COc1cc(C(=O)N2CCC(N3CCN(C)CC3)CC2)ccc1Nc1ncc2c(n1)N(C1CCCC1)c1ccccc1C(=O)N2C [Compound 25, 11-cyclopentyl-2-((2-methoxy-4-(4-(4-methylpiperazin-1-yl)piperidine-1-carbonyl)phenyl)amino)-5-methyl-5H-benzo[e]pyrimido[5,4-b][1,4]diazepin-6(11H)-one] | 100 | 100
3 | CCOc1cc(C(=O)N2CCC(N3CCN(C)CC3)CC2)ccc1Nc1ncc2c(n1)N(C1CCCC1)c1ccccc1C(=O)N2C [Compound 26] | 99 | 100
